# Experimental data taken from US12162848B2, “Inhibitors of protein tyrosine phosphatase, compositions, and methods of use” (BRISTOL-MYERS SQUIBB COMPANY, priority 2022, dated 2024).
# How the values were obtained:
# PTPN2 enzyme = molecular target: T1, PTPN2 enzyme (Homo sapiens, UniProt P17706); assay: PhosphoSens PTPN2 biochemical assay; settings: substrate AQT0264 20 μM, room temperature; read-out: PTPN2 BCHEM IC50
# T1 sequence (P17706 1-415): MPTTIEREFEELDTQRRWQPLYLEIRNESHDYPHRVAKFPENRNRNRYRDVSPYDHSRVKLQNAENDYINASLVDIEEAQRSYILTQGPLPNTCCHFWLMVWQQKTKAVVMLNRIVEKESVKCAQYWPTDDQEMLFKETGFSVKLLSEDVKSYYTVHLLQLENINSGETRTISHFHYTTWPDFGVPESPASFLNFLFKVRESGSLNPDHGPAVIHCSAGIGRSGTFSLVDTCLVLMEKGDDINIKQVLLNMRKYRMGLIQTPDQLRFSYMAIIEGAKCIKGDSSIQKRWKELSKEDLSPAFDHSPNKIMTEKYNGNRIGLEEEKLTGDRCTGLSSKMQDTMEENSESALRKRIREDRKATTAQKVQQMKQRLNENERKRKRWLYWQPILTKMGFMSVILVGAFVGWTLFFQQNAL
# In short: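 PhosphoSens fluorescence format with 20 μM final AQT0264 substrate and […] in 50 mM HEPES pH 7.5, 500 μM EGTA, […], 0.01% Brij-35, 1% glycerol, 1 mM DTT, 0.2 mg/mL BSA. Compounds in 3-fold dilution series; progress curves read (ex 360/em 480 nm) every 71 s for 1 h at room temperature.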
# [1] = tested on: phosphorylated STAT1 protein levels in B16-F10 cells; assay: Phospho-STAT1 (Tyr701) HTRF assay in IFN-gamma treated B16-F10 cells; format: cell-based; settings: mouse IFN-gamma 100 ng/mL, 1 hour, read-out: pSTAT1 HTRF B16 EC50
# In short: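 Mouse B16-F10 cells, 10,000/well, pretreated 1 h with compound (0.15% DMSO), then stimulated with mouse IFN-gamma at 100 ng/mL final for 1 h at 37 C. Phospho-STAT1 (Tyr701) measured by HTRF.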
# B16-F10 cells = assay: Cell proliferation assay (CellTiter-Glo) in IFN-gamma treated B16-F10 cells; format: cell-based; settings: 120 h, mouse IFN-gamma 10 ng/mL, read-out: PTPN2 Prolif 5d B16F10 EC50
# Method: B16-F10 cells (ATCC, Manassas, VA, #CRL-6475) were cultured in DMEM growth medium (ThermoFisher Scientific, Waltham, MA, #11995-040) supplemented with 10% heat inactivated FBS (ThermoFisher Scientific, #16140-071) and 1% pen/strep (ThermoFisher Scientific, #15140-122). The cells were seeded into two white opaque 384-well tissue culture treated microplates (PerkinElmer, Waltham, MA, #6007688) at a density of 100 cells/well in 20 uL total volume and incubated overnight at 37 C and 5% CO2. 30 nL of compounds dissolved in DMSO were then transferred from a source plate into target wells with the Echo650 acoustic liquid handler (Beckman Coulter, Indianapolis, IN). Negative control wells received 30 nL of DMSO only (0.15% final concentration). Plates were returned to the incubator for 1 hour and then cells treated with either 5 uL of growth medium or 5 uL of growth medium containing 50 ng/mL of recombinant mouse IFN-gamma protein (R&D Systems, Minneapolis, MN, #485-MI/CF, 10 ng/mL final concentration) using the Assist automated pipetting platform (INTEGRA Biosciences, Hudson, NH). Plates were incubated at 37 C for 4 days and cell proliferation assayed with the CellTiter-Glo reagent (Promega, Madison, WI, #G7573, 25 uL per well). […] Off-target compound mediated cytotoxicity was identified by checking for growth inhibition in the absence of IFNg.
SMILES,IC50 (PTPN2 enzyme),EC50 [1],EC50 (B16-F10 cells)
"O=C1CN(c2c(O)cc(-c3ccc(-c4ccccc4)nc3)cc2F)S(=O)(=O)N1 [EXAMPLE 30, 5-[2-fluoro-6-hydroxy-4-(6-phenyl-3-pyridyl)phenyl]-1,1-dioxo-1,2,5-thiadiazolidin-3-one]",148 nM,≥ 15000 nM,≥ 15000 nM
"CN1CCN(Cc2cc(O)c(N3CC(=O)NS3(=O)=O)c(F)c2)CC1 [EXAMPLE 31, 5-(2-fluoro-6-hydroxy-4-((4-methylpiperazin-1-yl)methyl)phenyl)-1,2,5-thiadiazolidin-3-one 1,1-dioxide]",104 nM,2410 nM,1310 nM
"CC(C)CCN1CCN(Cc2cc(O)c(N3CC(=O)NS3(=O)=O)c(F)c2)CC1 [EXAMPLE 32, 5-(2-fluoro-6-hydroxy-4-((4-isopentylpiperazin-1-yl)methyl)phenyl)-1,2,5-thiadiazolidin-3-one 1,1-dioxide]",65 nM,≥ 15000 nM,≥ 15000 nM
"CN(C)C1CCN(Cc2cc(O)c(N3CC(=O)NS3(=O)=O)c(F)c2)CC1 [EXAMPLE 33, 5-(4-((4-(dimethylamino)piperidin-1-yl)methyl)-2-fluoro-6-hydroxyphenyl)-1,2,5-thiadiazolidin-3-one 1,1-dioxide]",94 nM,≥ 15000 nM,≥ 15000 nM
"O=C1CN(c2c(O)cc(CNC3CCCCC3)cc2F)S(=O)(=O)N1 [EXAMPLE 34, 5-[4-[(cyclohexylamino)methyl]-2-fluoro-6-hydroxy-phenyl]-1,1-dioxo-1,2,5-thiadiazolidin-3-one]",90 nM,1740 nM,1720 nM
"O=C1CN(c2c(O)cc(CNC3CCOCC3)cc2F)S(=O)(=O)N1 [EXAMPLE 35, 5-[2-fluoro-6-hydroxy-4-[(tetrahydropyran-4-ylamino)methyl]phenyl]-1,1-dioxo-1,2,5-thiadiazolidin-3-one]",1560 nM,≥ 15000 nM,≥ 15000 nM
"CC(C)CC(=O)N1CCN(Cc2cc(O)c(N3CC(=O)NS3(=O)=O)c(F)c2)CC1 [EXAMPLE 36, 5-(2-fluoro-6-hydroxy-4-((4-(3-methylbutanoyl)piperazin-1-yl)methyl)phenyl)-1,2,5-thiadiazolidin-3-one 1,1-dioxide]",79 nM,≥ 15000 nM,≥ 15000 nM
"CC1(C)CCC(NCc2cc(O)c(N3CC(=O)NS3(=O)=O)c(F)c2)CC1 [EXAMPLE 37, 5-(4-(((4,4-dimethylcyclohexyl)amino)methyl)-2-fluoro-6-hydroxyphenyl)-1,2,5-thiadiazolidin-3-one 1,1-dioxide]",35 nM,1340 nM,812 nM
"O=C1CN(c2c(O)cc(CNC3CCNCC3)cc2F)S(=O)(=O)N1 [EXAMPLE 39, 5-(2-fluoro-6-hydroxy-4-((piperidin-4-ylamino)methyl)phenyl)-1,2,5-thiadiazolidin-3-one 1,1-dioxide]",86 nM,≥ 15000 nM,≥ 15000 nM
"CCN1CCC(NCc2cc(O)c(N3CC(=O)NS3(=O)=O)c(F)c2)CC1 [EXAMPLE 40, 5-(4-(((1-ethylpiperidin-4-yl)amino)methyl)-2-fluoro-6-hydroxyphenyl)-1,2,5-thiadiazolidin-3-one 1,1-dioxide]",131 nM,2340 nM,3260 nM
"O=C1CN(c2c(O)cc(CN3CCOCC3)cc2F)S(=O)(=O)N1 [EXAMPLE 41, 5-(2-fluoro-6-hydroxy-4-(morpholinomethyl)phenyl)-1,2,5-thiadiazolidin-3-one 1,1-dioxide]",70 nM,3380 nM,3560 nM
"O=C1CN(c2c(O)cc(CN3CCC(F)CC3)cc2F)S(=O)(=O)N1 [EXAMPLE 42, 5-(2-fluoro-4-((4-fluoropiperidin-1-yl)methyl)-6-hydroxyphenyl)-1,2,5-thiadiazolidin-3-one 1,1-dioxide]",60 nM,2570 nM,4720 nM
"CN(Cc1cc(O)c(N2CC(=O)NS2(=O)=O)c(F)c1)C1CCCCC1 [EXAMPLE 43, 5-(4-((cyclohexyl(methyl)amino)methyl)-2-fluoro-6-hydroxyphenyl)-1,2,5-thiadiazolidin-3-one 1,1-dioxide]",239 nM,4270 nM,4350 nM
"COCCN1CCN(Cc2cc(O)c(N3CC(=O)NS3(=O)=O)c(F)c2)CC1 [EXAMPLE 44, 5-(2-fluoro-6-hydroxy-4-((4-(2-methoxyethyl)piperazin-1-yl)methyl)phenyl)-1,2,5-thiadiazolidin-3-one 1,1-dioxide]",131 nM,≥ 15000 nM,≥ 15000 nM
"CC1(C)CCC[C@@H](NCc2cc(O)c(N3CC(=O)NS3(=O)=O)c(F)c2)C1 [EXAMPLE 51, 5-[4-[[[(1R)-3,3-dimethylcyclohexyl]amino]methyl]-2-fluoro-6-hydroxy-phenyl]-1,1-dioxo-1,2,5-thiadiazolidin-3-one]",35 nM,1150 nM,656 nM
"O=C1CN(c2c(O)cc(CN3CCC(O)CC3)cc2F)S(=O)(=O)N1 [EXAMPLE 52, 5-[2-fluoro-6-hydroxy-4-[(4-hydroxy-1-piperidyl)methyl]phenyl]-1,1-dioxo-1,2,5-thiadiazolidin-3-one]",114 nM,4610 nM,6940 nM
"COC1CCN(Cc2cc(O)c(N3CC(=O)NS3(=O)=O)c(F)c2)CC1 [EXAMPLE 53, 5-[2-fluoro-6-hydroxy-4-[(4-methoxy-1-piperidyl)methyl]phenyl]-1,1-dioxo-1,2,5-thiadiazolidin-3-one]",102 nM,3200 nM,2980 nM
"CN(C)CC1CCN(Cc2cc(O)c(N3CC(=O)NS3(=O)=O)c(F)c2)CC1 [EXAMPLE 56, 5-[4-[[4-[(dimethylamino)methyl]-1-piperidyl]methyl]-2-fluoro-6-hydroxy-phenyl]-1,1-dioxo-1,2,5-thiadiazolidin-3-one]",226 nM,≥ 15000 nM,≥ 15000 nM
"CNC(=O)[C@H]1CC[C@H](NCc2cc(O)c(N3CC(=O)NS3(=O)=O)c(F)c2)CC1 [EXAMPLE 58, (1r,4r)-4-((4-(1,1-dioxido-4-oxo-1,2,5-thiadiazolidin-2-yl)-3-fluoro-5-hydroxybenzyl)amino)-N-methylcyclohexane-1-carboxamide]",376 nM,5080 nM,≥ 15000 nM
"CNC(=O)CN1CCN(Cc2cc(O)c(N3CC(=O)NS3(=O)=O)c(F)c2)CC1 [EXAMPLE 59, 2-(4-(4-(1,1-dioxido-4-oxo-1,2,5-thiadiazolidin-2-yl)-3-fluoro-5-hydroxybenzyl)piperazin-1-yl)-N-methylacetamide]",477 nM,≥ 15000 nM,≥ 15000 nM
"CC(=O)N[C@H]1CC[C@H](NCc2cc(O)c(N3CC(=O)NS3(=O)=O)c(F)c2)CC1 [EXAMPLE 60, N-((1r,4r)-4-((4-(1,1-dioxido-4-oxo-1,2,5-thiadiazolidin-2-yl)-3-fluoro-5-hydroxybenzyl)amino)cyclohexyl)acetamide]",410 nM,≥ 15000 nM,≥ 15000 nM
"O=C1CN(c2c(O)cc(CN[C@@H]3CCCNC3)cc2F)S(=O)(=O)N1 [EXAMPLE 61, (R)-5-(2-fluoro-6-hydroxy-4-((piperidin-3-ylamino)methyl)phenyl)-1,2,5-thiadiazolidin-3-one 1,1-dioxide]",121 nM,4980 nM,2560 nM
